From patent publication US11801000B2, “Hormone electrochemical biosensor” (Trustees of Boston University, priority 2021, dated 2023)
“Also recorded” adds a separate entry of the source.

Columns and labels:
[1] = system: KSDH1; experiment: Amplex UltraRed assay (H2O2 detection by fluorescence); type: biochemical, Pimelobacter simplex; details: 500 μM final PRG, CRT; 4.56 μM KSDH1; normalized (analytes without enzyme subtracted)
Description: FIGS. 6A-6B are schematics and graphs detailing the Amplex® UltraRed Reagent assay in which fluorescence is analyte limited, not enzyme limited. FIG. 6A is a schematic showing the Amplex® UltraRed mechanism for oxidase enzymes. Hormone is oxidized into product and H2O2 with presence of […] and O2. Horseradish peroxidase (HRP) then oxidizes Amplex® UltraRed in the presence of H2O2 into resorufin, which is fluorescent.
In Vitro Enzyme Characterization: Amplex® UltraRed assays were performed per instruction of the manufacturer (Thermo Fisher Scientific, Cambridge, Mass.). Final concentrations of Amplex® UltraRed, 500 uM, and HRP, 1 U/mL, in a total volume of 20 μL were used. Hormone and KSDH1 and KSDH2 concentrations varied with experiment. All measurements of fluorescence were done in a 384 well flat bottom black polystyrene microplate (Corning Inc.™, Corning, N.Y.) and read in an Infinite M200 Pro™ (TECAN Group Ltd.™, Medford, Mass.) spectrophotometer at room temperature with the excitation set to 490 nm and emission at 585 nm. Readings were done over 1 hour with each well read every 30 seconds.
(§1) The FAD-binding (KSDH1) enzyme was used to develop and optimize a hormone electrochemical biosensor. […] KSDH1 was also assessed using a DCPIP Assay to test whether it is a dehydrogenase.

[2] = Cyclic voltammetry, electroactivity on DS110 carbon SPE; type: physicochemical
[3] = system: KSDH1; experiment: 2,6-Dichlorophenolindophenol (DCPIP) dehydrogenase functional assay; type: biochemical, Pimelobacter simplex; details: for Binding affinity, kinetics derived from velocity by hormone concentration experiment: FIG. 9C-9D
Description: A 2,6-Dichlorophenolindophenol functional assay was used to test whether KSDH1 is a dehydrogenase (FIG. 9A).
as §1

[4] = system: Pimelobacter simplex; experiment: RNA-Seq of Pimelobacter simplex in the presence of hormone; type: cell-based; details: P. simplex grown in the presence of progesterone
Description: FIG. 3 is a series of graphs showing that RNA-Seq identified the steroid degrading genome cluster in Pimelobacter simplex.
Strain RNA Extraction: Cells were grown in 5 mL M18 at a starting OD600 of 0.005 with 21.6 μM hormone in 14 mL polypropylene round-bottom tubes (Corning Inc.™, Corning, N.Y.) in singlet. The cells were incubated at 30° C. with continuous orbital shaking at 150 rpm until the end of lag-phase (3 hours) and mid-log phase (7.5 hours) from the start of inoculation. Controls were grown in the same conditions without hormone. […] RNA samples were subsequently quantified using Qubit RNA HS Assay Kit™ (Thermo Fisher Scientific Inc.™, Cambridge, Mass.) and analyzed using a RNA 6000 Pico Kit™ (Agilent Technologies Inc.™, Santa Clara, Calif.) in a 2100 Bioanalyzer™ (Agilent Technologies Inc.™, Santa Clara, Calif.). […]
RNA-Seq Library Preparation: After RNA samples have been quantified and analyzed they were DNase treated using TURBO™ DNase 2 U/μL (Thermo Fisher Scientific Inc™ Cambridge, Mass.) and cleaned using Agencourt RNAClean™ XP SPRI beads (Beckman Coulter, Inc.™, Brea, Calif.). […] Whole transcriptome RNA sequencing was performed by a NextSeq 500™ (Illumina Inc.™, San Diego, Calif.) at high output (400 M reads) with 75 bp paired end sequencing read length. The data was then analyzed in-house through a proprietary lab computational pipeline.

[5] = KSDH1 stability (storage, immobilizing polymer) on biosensor; type: physicochemical
Text: FIG. 27. KSDH1 precipitation in the presence of chitosan, an immobilizing polymer, is evident.
FIG. 30A-B. Glutaraldehyde immobilization decreases signal (FIG. 30A).

[6] = DS110, DMSO as solvent (FIG. 16A)
[7] = DS110, EtOH as solvent (FIG. 16B)

Molecule	KSDH1 response (fluorescence signal) to analyte [1]	Electroactivity by cyclic voltammetry [2, 6]	Electroactivity by cyclic voltammetry [2, 7]	Binding affinity, kinetics derived from velocity by hormone concentration experiment [3]	Expression of sterol responsive enzymes KSDH1 and KSDH2 (SRGI cluster) [4]	KSDH1 sensitivity in sterol screen (DCPIP reduction, absorbance at OD600 nm) ([3]; sterol screen, FIG. 9B)	Behaviour in the presence of chitosan, an immobilizing polymer ([5]; FIG. 27)	Current output after storage ([5]; storage at 4 C for 1 week, two electrode configuration, DS110, +0.4V)
C[C@]12CCC(=O)C=C1CC[C@@H]1[C@@H]2[C@@H](O)C[C@@]2(C)[C@H]1CC[C@]2(O)C(=O)CO [Cortisol, hydrocortisone]	increase of fluorescence; also recorded: responsive	not electroactive	not electroactive	strong	–	–	–	–
CC(=O)[C@H]1CC[C@H]2[C@@H]3CCC4=CC(=O)CC[C@]4(C)[C@H]3CC[C@]12C [Progesterone, progesterone]	increase of fluorescence; also recorded: responsive	not electroactive	not electroactive	strong	highly expressed	DCPIP was reduced; also recorded: high sensitivity	–	–
3-ketosteroid-Δ1-dehydrogenase enzyme 1 (protein, 6xHis tag) MDWAEEYDVLVAGSGAGGMAGTYTAAREGLSVCLVEAGDKFGGTTAYSGGGGAWFPANPVLLRAGTDDTIEDALEYYRAVVGDRTPADLQETYVRGGAGLVAYLEEDDHFSFESYPWPDYFGDAPKARRDGQRHIIPTPLPVPSAPELREVVRGPLDNDRLGTPQPDDLFIGGRALVARFLTALATYPHATLVRETALAELVVEDGVVVGAIVETDGVRRAIRARRGVLLAAGGFEANDELRQKYGVPGVARDTMGPPTNVGAAHQAAIAVGADTDLMGEAWWSPGLTHPDGRSAFALWFTGGIFVDGAGRRFVNESAPYDRLGRAVIDHLTEGGVTPRYWMVYDHKEGSIPPVRATNVSMVDEEQYVAAGLWHTADTLPELAALIGVPADALVATVARFNELVADGYDADFGRGGEAYDRFFSGGEPPLVSIDEGPFHAAAFGISDLGTKGGLRTDTSARVLTADGTPIGGLYAAGNTMAAPSGTTYPGGGNPIGTSMLFSHLAVRHMGTEDARGSHHHHHH	–	–	–	–	–	–	precipitation	no change in current output
